US20180264245A1, “Skin Care Applicator” (The Procter & Gamble Company, priority 2017, published 2018)
Blank lines part the entries; values can stand above or below the molecule they belong to. Where a SMILES comes first, the peptide text is derived from it.

Tests used:
[1] = Pal KTTKS in vivo skin penetration study (tape stripping); parameters: species or system human; key to significance of mean μg PalKTTKS/μg skin of Strip 6-10: “s” indicates significant difference vs. mean of passive (p < 0.1); details: for μg PalKTTKS/μg skin of Strip 6-10: cream; for Enhancement for strip 6-10: w Vibration vs. w/o Vibration
Method: An in vivo skin penetration study was conducted to establish the effect of using a skin care product of the present invention by applying a skin care composition comprising a peptide, in this case, Pal KTTKS, with an applicator comprising a magnetic array and a vibration source. The study used 10 active study sites (composition applied to target skin surface using an applicator containing a magnetic array and vibration source of the present invention) versus 10 control study sites (composition applied to target skin surface using an applicator with just a magnetic array). In this example, the level of Pal KTTKS present in the extract from each tape strip was measured using HPLC and the results normalized to the protein level measured on the tape strip.
This method provides a suitable means of measuring the amount of skin care active present in skin, and comparing active versus passive application of the skin care active. Two identical circular areas of 7.9 cm^2 were marked on the volar forearms of volunteers. A measured dose (approximately 9 mg) of the skin care formulation (ingredients shown in Table 1) was applied to the delineated areas using a screw actuated syringe. Application was carried out in each case using purpose made applicators having a metallic aluminium skin contact surface behind which was the magnetic array. The cream was spread evenly across the entire delineated region using the applicator in a sweeping motion with a fixed speed of approximately 3.5 cm/s to mimic normal finger application. The application period was 30 seconds during which time visual inspection was used to ensure even distribution and absorption of the formulation by skin. The application area was then left uncovered for a further 30 minutes to ensure complete absorption. The application area was then wiped thoroughly to remove any surface material, followed by carrying out tape stripping.
The Tape Stripping method can be carried out using commercial pre-cut 22.1 mm tape stripping adhesive discs (D-Squame, Cuderm Corporation or equivalent) with an adhesive area of 3.8 cm^2. A 22.1 mm diameter circular region was marked at the centre of the application area. A tape stripping adhesive disc was placed over the marked area and even pressure applied using a neoprene roller, rolled ten times over the surface. The adhesive disc was removed from the skin surface in a single pulling motion using manual tweezers. To ensure even removal of the stratum corneum, subsequent discs were removed in a north, south, east and west orientation. Each adhesive disc was non-destructively analysed for relative protein content using the SquameScan™ 850 instrument (Heiland Electronics Wetzlar Germany). The adhesive disc was then immediately placed into a glass vial containing extraction solvent in preparation for subsequent analysis. Solvent extractions are conducted on each tape strip using conventional extraction methods, which are well known to those of ordinary skill in the art, and measuring the amount of niacinamide present in the extract, for example, by high performance liquid chromatography (“HPLC”) and/or mass spectrometry.
The procedure was repeated for the remaining nine strips. An additional strip was obtained from outside the area of application of the skin care formulation to serve as a blank sample.

[2] = unit not given; cited from earlier work
[3] = Inositol in vitro skin penetration study (Franz Diffusion Cell assay); assay type: in vitro ADME, human; details: 0.5% inositol product, 24 hours; magnet with vibration vs. finger application or applicator incorporating a magnet; particularly in the epidermis; FIG. 6
Method: Skin penetration was measured using the Franz Diffusion Cell assay. Split-thickness (dermatomed) human cadaver skin was thawed under ambient conditions, cut into appropriately sized sections, and mounted in standard Franz-type diffusion cells (0.79 cm^2 surface area) maintained at about 37° C. The receptor compartments were filled with 5 mL phosphate buffered saline (PBS-pH 7.4) that included 1% polysorbate-20 and 0.02% sodium azide, and the skin was allowed to equilibrate for two hours. The cells were qualified upon ^3H20 flux through the mounted skin (150 μL of ^3H20 applied for five minutes and removed; receptor fluid was collected after one hour and analyzed using scintillation spectrometry). […] Where indicated, aliquots of the test products/formulations were spiked with the appropriate radioactive material (^3H-inositol, ^14C-niacinamide, ^14[…] or ^14C-retinyl propionate) with approximately 3 μCi per 300 mg product aliquot, mixed and assayed for total radioactivity in triplicate using Ultima Gold [Perkin-Elmer] liquid scintillation cocktail (LSC) and liquid scintillation counting. […] Active materials in receptor phase, filter paper wipes and solubilized skin samples were quantified using liquid scintillation. […]

significance of mean μg PalKTTKS/μg skin of Strip 6-10 ([1]; Magnetic Micro array w Vibration, Mean, vs. mean of passive): s
μg PalKTTKS/μg skin of Strip 6-10 ([1]; Magnetic Micro array w Vibration, Mean of 10 panelists): 0.02522 μg PalKTTKS/μg skin
μg PalKTTKS/μg skin of Strip 6-10 ([1]; Magnetic Micro array w Vibration, Panelist1): 0.01152 μg PalKTTKS/μg skin
μg PalKTTKS/μg skin of Strip 6-10 ([1]; Magnetic Micro array w Vibration, Panelist2): 0.02161 μg PalKTTKS/μg skin
μg PalKTTKS/μg skin of Strip 6-10 ([1]; Magnetic Micro array w Vibration, Panelist3): 0.01304 μg PalKTTKS/μg skin
μg PalKTTKS/μg skin of Strip 6-10 ([1]; Magnetic Micro array w Vibration, Panelist4): 0.0258 μg PalKTTKS/μg skin
μg PalKTTKS/μg skin of Strip 6-10 ([1]; Magnetic Micro array w Vibration, Panelist5): 0.0568 μg PalKTTKS/μg skin
μg PalKTTKS/μg skin of Strip 6-10 ([1]; Magnetic Micro array w Vibration, Panelist6): 0.04369 μg PalKTTKS/μg skin
μg PalKTTKS/μg skin of Strip 6-10 ([1]; Magnetic Micro array w Vibration, Panelist7): 0.02184 μg PalKTTKS/μg skin
μg PalKTTKS/μg skin of Strip 6-10 ([1]; Magnetic Micro array w Vibration, Panelist8): 0.02081 μg PalKTTKS/μg skin
μg PalKTTKS/μg skin of Strip 6-10 ([1]; Magnetic Micro array w Vibration, Panelist9): 0.01648 μg PalKTTKS/μg skin
μg PalKTTKS/μg skin of Strip 6-10 ([1]; Magnetic Micro array w Vibration, Panelist10): 0.02061 μg PalKTTKS/μg skin
μg PalKTTKS/μg skin of Strip 6-10 ([1]; Magnetic Micro array w/o Vibration, Mean of 10 panelists): 0.02166 μg PalKTTKS/μg skin
μg PalKTTKS/μg skin of Strip 6-10 ([1]; Magnetic Micro array w/o Vibration, Panelist1): 0.0107 μg PalKTTKS/μg skin
μg PalKTTKS/μg skin of Strip 6-10 ([1]; Magnetic Micro array w/o Vibration, Panelist2): 0.01869 μg PalKTTKS/μg skin
μg PalKTTKS/μg skin of Strip 6-10 ([1]; Magnetic Micro array w/o Vibration, Panelist3): 0.00663 μg PalKTTKS/μg skin
μg PalKTTKS/μg skin of Strip 6-10 ([1]; Magnetic Micro array w/o Vibration, Panelist4): 0.01973 μg PalKTTKS/μg skin
μg PalKTTKS/μg skin of Strip 6-10 ([1]; Magnetic Micro array w/o Vibration, Panelist5): 0.05444 μg PalKTTKS/μg skin
μg PalKTTKS/μg skin of Strip 6-10 ([1]; Magnetic Micro array w/o Vibration, Panelist6): 0.03195 μg PalKTTKS/μg skin
μg PalKTTKS/μg skin of Strip 6-10 ([1]; Magnetic Micro array w/o Vibration, Panelist7): 0.02902 μg PalKTTKS/μg skin
μg PalKTTKS/μg skin of Strip 6-10 ([1]; Magnetic Micro array w/o Vibration, Panelist8): 0.01924 μg PalKTTKS/μg skin
μg PalKTTKS/μg skin of Strip 6-10 ([1]; Magnetic Micro array w/o Vibration, Panelist9): 0.00638 μg PalKTTKS/μg skin
μg PalKTTKS/μg skin of Strip 6-10 ([1]; Magnetic Micro array w/o Vibration, Panelist10): 0.01984 μg PalKTTKS/μg skin
penetration of the active into skin ([1]; applicator combining magnetic array with vibration source vs. control applicator with just a magnetic array): penetration of the active is enhanced
Enhancement for strip 6-10 ([1]; Mean): 1.337
Enhancement for strip 6-10 ([1]; Panelist1): 1.077
Enhancement for strip 6-10 ([1]; Panelist2): 1.156
Enhancement for strip 6-10 ([1]; Panelist3): 1.966
Enhancement for strip 6-10 ([1]; Panelist4): 1.307
Enhancement for strip 6-10 ([1]; Panelist5): 1.043
Enhancement for strip 6-10 ([1]; Panelist6): 1.367
Enhancement for strip 6-10 ([1]; Panelist7): 0.7528
Enhancement for strip 6-10 ([1]; Panelist8): 1.081
Enhancement for strip 6-10 ([1]; Panelist9): 2.582
Enhancement for strip 6-10 ([1]; Panelist10): 1.039
Compound: CCCCCCCCCCCCCCCC(=O)N[C@@H](CCCCN)C(=O)N[C@H](C(=O)N[C@H](C(=O)N[C@@H](CCCCN)C(=O)N[C@@H](CO)C(=O)O)[C@@H](C)O)[C@@H](C)O [PalKTTKS, palimitoyl-lysine-threonine-threonine-lysine-serine] (HELM PEPTIDE1{[CCCCCCCCCCCCCCCC(=O)[*:2]].K.T.T.K.S}$$$$V2.0; C-terminus assumed)
diamagnetic susceptibility [2]: approximately −519

Compound: OC1C(O)[C@H](O)[C@@H](O)C(O)[C@H]1O (stereo in doubt) [inositol, cyclohexane-1,2,3,4,5,6-hexol]
penetration into skin of inositol [3]: significant increase in penetration into skin
